According to patent US11332500B2, “Heterotandem bicyclic peptide complexes” (BicycleTx Limited, priority 2019, dated 2022):
Read-outs that look alike come from different tables or passages of the source. *1 amine or outer side, *2 acyl side, *3 side chain or, on linkers, in order; H or OH if unused. Where a SMILES comes first, the peptide text is derived from it. Bridges are numbered along the chain shown (N, C = ends). Roman numbers before positions name the chains, in order. [ ]: non-standard residue; d: D form. TATA = O=C(CC[*:1])N1CN(C(=O)CC[*:2])CN(C(=O)CC[*:3])C1; X1 = O=C(CCc1cn(CCOCCOCCOCCOCCOCCC(=O)[*:2])nn1)[*:1]; X2 = O=C(CCOCCOCCOCCOCCOCCn1cc(CCC(=O)[*:2])nn1)[*:1]; Dip = N[C@H](C(=O)O)C(c1ccccc1)c1ccccc1; Hyp = O=C(O)[C@@H]1C[C@@H](O)CN1; hArg = N=C(N)NCCCC[C@H](N)C(=O)O; tBuAla = CC(C)(C)C[C@H](N)C(=O)O; Cba = N[C@@H](CC1CCC1)C(=O)O; Nle = CCCC[C@H](N)C(=O)O

Assays:
[1] = molecular target: T1, CD137 (Homo sapiens, UniProt Q07011); assay: CD137 reporter assay co-culture with RKO tumour cells (PD-L1/CD137 heterotandems); format: cell-based; conditions: Jurkat CD137 reporter cells co-cultured with RKO (PD-L1), 6 h; read-out: Fold Induction over background
T1 construct: host or cells: Jurkat reporter cells from the Promega kit, co-cultured with tumour cells (NCI-H292, PC3 or RKO)
T1 sequence (Q07011 24-255): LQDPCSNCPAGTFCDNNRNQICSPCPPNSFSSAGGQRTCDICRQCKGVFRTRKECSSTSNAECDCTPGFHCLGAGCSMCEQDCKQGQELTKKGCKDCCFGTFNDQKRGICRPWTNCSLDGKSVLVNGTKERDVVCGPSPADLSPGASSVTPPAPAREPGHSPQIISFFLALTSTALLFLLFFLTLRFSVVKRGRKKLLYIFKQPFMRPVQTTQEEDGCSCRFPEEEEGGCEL
Experimental: Culture medium, referred to as R1 media, is prepared by adding 1% FBS to RPMI-1640 (component of Promega kit CS196005). Serial dilutions of test articles in R1 are prepared in a sterile 96 well-plate. Add 25 μL per well of test articles or R1 (as a background control) to designated wells in a white cell culture plate. Tumour cells* are harvested and resuspended at a concentration of 400,000 cells/mL in R1 media. Twenty five (25) μL/well of tumour cells are added to the white cell culture plate. Jurkat cells (Promega kit CS196005, 0.5 mL) are thawed in the water bath and then added to 5 ml pre-warmed R1 media. Twenty five (25) μL/well of Jurkat cells are then added to the white cell culture plate. Incubate the cells and test articles for 6 h at 37° C., 5% CO2. At the end of 6 h, add 75 μL/well Bio-Glo™ reagent (Promega) and incubate for 10 min before reading luminescence in a plate reader (Clariostar, BMG). The fold change relative to cells alone (Jurkat cells+Cell line used in co-culture) is calculated and plotted in GraphPad Prism as log(agonist) vs response to determine EC50 (nM) and Fold Induction over background (Max).
The tumour cell type used in co-culture for EphA2 is PC3. The tumour cell type used in co-culture for PD-L1 is RKO.
A summary of the fold induction induced by PD-L1/CD137 heterotandem peptides in the CD137 reporter coculture assay with RKO cells is shown in Table 3.

[2] = Pharmacokinetics of CD137 heterotandem bicyclic peptide complexes in SD rats; conditions: rat, in vivo, male SD rats, IV Inf, plasma; for clearance: read-out: Clp; for half-life: read-out: T½ (converted); for Vd: read-out: Vdss
Experimental: Male SD Rats were dosed with 2 mg/kg of each heterotandem Bicycle peptide complex formulated in 25 mM Histidine HCl, 10% sucrose pH 7. Serial bleeding (about 80 μL blood/time point) was performed via submadibular or saphenous vein at each time point. All blood samples were immediately transferred into prechilled microcentrifuge tubes containing 2 μL K2-EDTA (0.5M) as anti-coagulant and placed on wet ice. Blood samples were immediately processed for plasma by centrifugation at approximately 4° C., 3000 g. The precipitant including internal standard was immediately added into the plasma, mixed well and centrifuged at 12,000 rpm, 4° C. for 10 minutes. The supernatant was transferred into pre-labeled polypropylene microcentrifuge tubes, and then quick-frozen over dry ice. The samples were stored at […] or below as needed until analysis. 7.5 μL of the supernatant samples were directly injected for LC-MS/MS analysis using an Orbitrap Q Exactive in positive ion mode to determine the concentrations of Bicycle. Plasma concentration versus time data were analyzed by non-compartmental approaches using the Phoenix WinNonlin 6.3 software program. C0, Cl, Vdss, T½, AUC(0-last), AUC(0-inf), MRT(0-last), MRT(0-inf) and graphs of plasma concentration versus time profile were reported.

Row | SMILES | fold induction [1] | clearance ([2]; 3.0 mg/kg) [mL/min/kg] | half-life ([2]; 3.0 mg/kg) [min] | Vd ([2]; 3.0 mg/kg) [L/kg] | further results
1 | CCCC[C@@H]1NC(=O)[C@H](Cc2ccc(O)cc2)NC(=O)[C@@H]2CCCN2C(=O)[C@H](CC(=O)O)NC(=O)[C@H](C)NC(=O)[C@H](Cc2ccccc2)NC(=O)[C@@H]2CSCCC(=O)N3CN(CN(C3)C(=O)CCSC[C@@H](C(=O)N[C@@H](C)C(N)=O)NC1=O)C(=O)CCSC[C@H](NC(C)=O)C(=O)N[C@@H](CC(C)(C)C)C(=O)N1CCC[C@H]1C(=O)N[C@@H](CCC(=O)O)C(=O)N[C@H](CCCCNC(=O)CCc1cn(CCOCCOCCOCCOCCOCCC(=O)NCCCC[C@@H]3NC(=O)[C@H](CCC(N)=O)NC(=O)[C@@H]4CSCCC(=O)N5CN(CN(C5)C(=O)CCSC[C@@H](C(=O)N5CCC[C@H]5C(=O)N[C@@H](CO)C(=O)N[C@@H](Cc5c[nH]cn5)C(N)=O)NC(=O)[C@H](CC(C)C)NC(=O)[C@H](Cc5c[nH]cn5)NC(=O)[C@H](CC(C)C)NC3=O)C(=O)CCSC[C@H](NC(=O)[C@H](CCCCNC(=N)N)NC(=O)[C@H](CC(=O)O)NC(C)=O)C(=O)N[C@@H](CO)C(=O)N[C@@H](C)C(=O)NCC(=O)N[C@@H](Cc3c[nH]c5ccccc35)C(=O)N[C@@H](CC(C)C)C(=O)N[C@@H]([C@@H](C)O)C(=O)N[C@@H](CCSC)C(=O)N4)nn1)C(=O)N1CCC[C@H]1C(=O)N[C@@H](Cc1ccc(O)cc1)C(=O)N2 [BCY12229] (I: Ac-D[hArg]CSAGWLTMCQKLHLCPSH-NH2 / II: Ac-C[tBuAla]PE[dK]PYCFADPY[Nle]CA-NH2; linker I:3-I:11-I:17, II:1-II:8-II:15 via TATA; linker I:13-II:5 via X2) | 8 | – | – | – | –
2 | CCCC[C@@H]1NC(=O)[C@H](Cc2ccc(O)cc2)NC(=O)[C@@H]2CCCN2C(=O)[C@H](CC(=O)O)NC(=O)[C@H](C)NC(=O)[C@H](Cc2ccccc2)NC(=O)[C@@H]2CSCCC(=O)N3CN(CN(C3)C(=O)CCSC[C@@H](C(=O)N[C@@H](C)C(N)=O)NC1=O)C(=O)CCSC[C@H](NC(C)=O)C(=O)N[C@@H](CC(C)(C)C)C(=O)N1CCC[C@H]1C(=O)N[C@@H](CCC(=O)O)C(=O)N[C@H](CCCCNC(=O)CCc1cn(CCOCCOCCOCCOCCOCCC(=O)NCCCC[C@@H]3NC(=O)[C@H](CO)NC(=O)[C@@H](NC(=O)[C@H](CCCCNC(=N)N)NC(=O)[C@H](CC(=O)O)NC(C)=O)CSCCC(=O)N4CN5CN(C4)C(=O)CCSC[C@@H](C(=O)N4CCC[C@H]4C(=O)N[C@@H](CO)C(=O)N[C@@H](Cc4c[nH]cn4)C(N)=O)NC(=O)[C@H](CC(C)C)NC(=O)[C@H](Cc4c[nH]cn4)NC(=O)[C@H](CC(C)C)NC(=O)[C@H](CCCCNC(C)=O)NC(=O)[C@H](CCC(N)=O)NC(=O)[C@H](CSCCC5=O)NC(=O)[C@H](CCSC)NC(=O)[C@H]([C@@H](C)O)NC(=O)[C@H](CC(C)C)NC(=O)[C@H](Cc4c[nH]c5ccccc45)NC(=O)CNC3=O)nn1)C(=O)N1CCC[C@H]1C(=O)N[C@@H](Cc1ccc(O)cc1)C(=O)N2 [BCY12230] (I: Ac-D[hArg]CSKGWLTMCQK(Ac)LHLCPSH-NH2 / II: Ac-C[tBuAla]PE[dK]PYCFADPY[Nle]CA-NH2; linker I:3-I:11-I:17, II:1-II:8-II:15 via TATA; linker I:5-II:5 via X2) | 10 | – | – | – | –
3 | CCCC[C@@H]1NC(=O)[C@H](Cc2ccc(O)cc2)NC(=O)[C@@H]2CCCN2C(=O)[C@H](CC(=O)O)NC(=O)[C@H](C)NC(=O)[C@H](Cc2ccccc2)NC(=O)[C@@H]2CSCCC(=O)N3CN(CN(C3)C(=O)CCSC[C@@H](C(=O)N[C@@H](C)C(N)=O)NC1=O)C(=O)CCSC[C@H](NC(C)=O)C(=O)N[C@@H](CC(C)(C)C)C(=O)N1CCC[C@H]1C(=O)N[C@@H](CCC(=O)O)C(=O)N[C@H](CCCCNC(=O)CCOCCOCCOCCOCCOCCn1cc(CCC(=O)NCCCC[C@H](NC(=O)[C@@H]3CSCCC(=O)N4CN5CN(C4)C(=O)CCSC[C@H](NC(=O)[C@H](CC(=O)O)NC(=O)[C@H](CCCCNC(=N)N)NC(=O)[C@H](C)NC(C)=O)C(=O)N4C[C@H](O)C[C@H]4C(=O)N[C@@H](CC(C)C)C(=O)N[C@@H](C(C)C)C(=O)N[C@@H](CC(N)=O)C(=O)N4CCC[C@H]4C(=O)N[C@@H](CC(C)C)C(=O)N[C@@H](CSCCC5=O)C(=O)N[C@@H](CC(C)C)C(=O)N[C@@H](Cc4c[nH]cn4)C(=O)N4CCC[C@H]4C(=O)N[C@H](CC(=O)O)C(=O)N[C@@H](Cc4c[nH]c5ccccc45)C(=O)N[C@@H](CCCCNC(=N)N)C(=O)N3)C(N)=O)nn1)C(=O)N1CCC[C@H]1C(=O)N[C@@H](Cc1ccc(O)cc1)C(=O)N2 [BCY12234] (I: Ac-A[hArg]DC[Hyp]LVNPLCLHP[dD]W[hArg]CK-NH2 / II: Ac-C[tBuAla]PE[dK]PYCFADPY[Nle]CA-NH2; linker I:4-I:11-I:18, II:1-II:8-II:15 via TATA; linker I:19-II:5 via X1) | – | – | – | – | clearance ([2]; 2.0 mg/kg): 26 mL/min/kg; half-life ([2]; 2.0 mg/kg): 25.2 min; Vd ([2]; 2.0 mg/kg): 0.95 L/kg
4 | CCCC[C@@H]1NC(=O)[C@H](Cc2ccc(O)cc2)NC(=O)[C@@H]2CCCN2C(=O)[C@H](CC(=O)O)NC(=O)[C@H](C)NC(=O)[C@H](Cc2ccccc2)NC(=O)[C@@H]2CSCCC(=O)N3CN(CN(C3)C(=O)CCSC[C@@H](C(=O)N[C@@H](C)C(N)=O)NC1=O)C(=O)CCSC[C@H](NC(C)=O)C(=O)N[C@@H](CC(C)(C)C)C(=O)N1CCC[C@H]1C(=O)N[C@@H](CCC(=O)O)C(=O)N[C@H](CCCCNC(=O)CCc1cn(CCOCCOCCOCCOCCOCCC(=O)N[C@H]3CSCCC(=O)N4CN5CN(C4)C(=O)CCSC[C@H](NC(=O)[C@H](CC(C)C)NC(=O)[C@@H]4CCCN4C(=O)[C@H](CC(N)=O)NC(=O)[C@H](C(C)C)NC(=O)[C@H](CC(C)C)NC(=O)[C@@H]4C[C@@H](O)CN4C3=O)C(=O)N[C@@H](CC(C)C)C(=O)N[C@@H](C(c3ccccc3)c3ccccc3)C(=O)N3CCC[C@H]3C(=O)N[C@H](CC(=O)O)C(=O)N[C@@H](Cc3c[nH]c4ccccc34)C(=O)N[C@@H]([C@@H](C)O)C(=O)N[C@H](C(N)=O)CSCCC5=O)nn1)C(=O)N1CCC[C@H]1C(=O)N[C@@H](Cc1ccc(O)cc1)C(=O)N2 [BCY13035] (I: Ac-C[tBuAla]PE[dK]PYCFADPY[Nle]CA-NH2 / II: C[Hyp]LVNPLCL[Dip]P[dD]WTC-NH2; linker I:1-I:8-I:15, II:1-II:8-II:15 via TATA; linker I:5-II:N via X1) | – | 11 | 90 | 0.63 | –
5 | CCCC[C@@H]1NC(=O)[C@H](Cc2ccc(O)cc2)NC(=O)[C@@H]2CCCN2C(=O)[C@H](CC(=O)O)NC(=O)[C@H](C)NC(=O)[C@H](Cc2ccccc2)NC(=O)[C@@H]2CSCCC(=O)N3CN(CN(C3)C(=O)CCSC[C@@H](C(=O)N[C@@H](C)C(N)=O)NC1=O)C(=O)CCSC[C@H](NC(C)=O)C(=O)N[C@@H](CC(C)(C)C)C(=O)N1CCC[C@H]1C(=O)N[C@@H](CCC(=O)O)C(=O)N[C@H](CCCCNC(=O)CCc1cn(CCOCCOCCOCCOCCOCCC(=O)N[C@H]3CSCCC(=O)N4CN5CN(C4)C(=O)CCSC[C@@H](C(=O)N[C@H](C)C(N)=O)NC(=O)[C@H]([C@@H](C)O)NC(=O)[C@H](Cc4c[nH]c6ccccc46)NC(=O)[C@@H](CC(=O)O)NC(=O)[C@@H]4CCCN4C(=O)[C@H](C(c4ccccc4)c4ccccc4)NC(=O)[C@H](CC(C)C)NC(=O)[C@H](CSCCC5=O)NC(=O)[C@H](CC(C)C)NC(=O)[C@@H]4CCCN4C(=O)[C@H](CC(N)=O)NC(=O)[C@H](C(C)C)NC(=O)[C@H](CC4CCC4)NC(=O)[C@@H]4C[C@@H](O)CN4C3=O)nn1)C(=O)N1CCC[C@H]1C(=O)N[C@@H](Cc1ccc(O)cc1)C(=O)N2 [BCY13040] (I: C[Hyp][Cba]VNPLCL[Dip]P[dD]WTC[dA]-NH2 / II: Ac-C[tBuAla]PE[dK]PYCFADPY[Nle]CA-NH2; linker I:1-I:8-I:15, II:1-II:8-II:15 via TATA; linker I:N-II:5 via X2) | – | 10 | 96 | 0.63 | –
